Source: ChEMBL document CHEMBL3351894, “Development and evaluation of ST-1829 based on 5-benzylidene-2-phenylthiazolones as promising agent for anti-leukotriene therapy” (Eur J Med Chem, 2015)
Converted amounts (≈) assume the structure as drawn. The source made the active and inactive calls. No cut-off for these calls is given here.

Assays:
[1] = target: T1, Polyunsaturated fatty acid 5-lipoxygenase (Homo sapiens) (UniProt P09917); assay: Inhibition of 5-LO in human PMNL using arachidonic acid as substrate assessed as product formation at 1 to 10 uM incubated for 15 mins prior to substrate addition measured after 10 mins by HPLC analysis in presence of 10% fetal calf serum
T1 sequence (whole entry): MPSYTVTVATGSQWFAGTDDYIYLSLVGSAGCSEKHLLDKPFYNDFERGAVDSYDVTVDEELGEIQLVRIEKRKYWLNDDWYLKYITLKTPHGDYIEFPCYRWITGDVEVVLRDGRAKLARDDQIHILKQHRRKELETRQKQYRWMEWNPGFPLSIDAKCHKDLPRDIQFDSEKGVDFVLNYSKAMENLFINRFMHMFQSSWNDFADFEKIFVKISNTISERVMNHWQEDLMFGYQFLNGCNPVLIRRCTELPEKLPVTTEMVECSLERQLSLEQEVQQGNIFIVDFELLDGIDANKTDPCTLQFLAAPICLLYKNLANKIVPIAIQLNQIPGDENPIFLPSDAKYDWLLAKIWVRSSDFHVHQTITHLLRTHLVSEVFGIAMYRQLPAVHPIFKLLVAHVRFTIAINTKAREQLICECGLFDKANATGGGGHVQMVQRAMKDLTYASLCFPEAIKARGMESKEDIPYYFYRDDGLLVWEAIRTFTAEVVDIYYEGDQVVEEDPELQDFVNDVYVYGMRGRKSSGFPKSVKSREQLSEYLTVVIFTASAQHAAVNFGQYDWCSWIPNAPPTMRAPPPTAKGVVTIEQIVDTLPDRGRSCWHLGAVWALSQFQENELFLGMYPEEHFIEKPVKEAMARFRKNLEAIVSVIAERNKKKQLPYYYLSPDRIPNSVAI

[2] = target: T2, Polyunsaturated fatty acid 5-lipoxygenase (Homo sapiens, UniProt P09917); assay: Inhibition of 5-LO in human PMNL S100 extract using arachidonic acid as substrate incubated for 15 mins prior to substrate addition measured after 10 mins by HPLC analysis
T2 sequence (P09917 whole entry): T1 sequence (whole entry)

[3] = target: T3, Polyunsaturated fatty acid lipoxygenase ALOX12 (Homo sapiens, UniProt P18054); assay: Inhibition of 12-LO (unknown origin)
T3 sequence (P18054 whole entry): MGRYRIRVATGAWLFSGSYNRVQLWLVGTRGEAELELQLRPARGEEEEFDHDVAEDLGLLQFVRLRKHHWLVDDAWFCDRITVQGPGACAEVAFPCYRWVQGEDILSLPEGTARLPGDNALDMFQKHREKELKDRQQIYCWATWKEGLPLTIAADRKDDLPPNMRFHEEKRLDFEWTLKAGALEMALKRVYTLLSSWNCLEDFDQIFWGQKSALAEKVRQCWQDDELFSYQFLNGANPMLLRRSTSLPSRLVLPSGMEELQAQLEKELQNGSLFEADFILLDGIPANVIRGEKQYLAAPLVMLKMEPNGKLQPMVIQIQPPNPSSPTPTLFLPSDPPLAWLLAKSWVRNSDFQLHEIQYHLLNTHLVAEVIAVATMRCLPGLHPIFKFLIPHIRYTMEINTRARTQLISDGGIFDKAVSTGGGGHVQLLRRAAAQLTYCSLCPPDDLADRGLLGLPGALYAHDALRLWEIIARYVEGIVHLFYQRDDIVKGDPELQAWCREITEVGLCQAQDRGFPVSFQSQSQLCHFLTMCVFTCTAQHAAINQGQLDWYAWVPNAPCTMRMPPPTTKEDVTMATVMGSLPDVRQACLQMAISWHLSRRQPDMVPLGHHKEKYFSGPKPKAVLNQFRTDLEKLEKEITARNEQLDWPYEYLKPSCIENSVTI

[4] = target: T4, Polyunsaturated fatty acid lipoxygenase ALOX15 (Homo sapiens, UniProt P16050); assay: Inhibition of 15-LO1 (unknown origin)
T4 sequence (P16050 whole entry): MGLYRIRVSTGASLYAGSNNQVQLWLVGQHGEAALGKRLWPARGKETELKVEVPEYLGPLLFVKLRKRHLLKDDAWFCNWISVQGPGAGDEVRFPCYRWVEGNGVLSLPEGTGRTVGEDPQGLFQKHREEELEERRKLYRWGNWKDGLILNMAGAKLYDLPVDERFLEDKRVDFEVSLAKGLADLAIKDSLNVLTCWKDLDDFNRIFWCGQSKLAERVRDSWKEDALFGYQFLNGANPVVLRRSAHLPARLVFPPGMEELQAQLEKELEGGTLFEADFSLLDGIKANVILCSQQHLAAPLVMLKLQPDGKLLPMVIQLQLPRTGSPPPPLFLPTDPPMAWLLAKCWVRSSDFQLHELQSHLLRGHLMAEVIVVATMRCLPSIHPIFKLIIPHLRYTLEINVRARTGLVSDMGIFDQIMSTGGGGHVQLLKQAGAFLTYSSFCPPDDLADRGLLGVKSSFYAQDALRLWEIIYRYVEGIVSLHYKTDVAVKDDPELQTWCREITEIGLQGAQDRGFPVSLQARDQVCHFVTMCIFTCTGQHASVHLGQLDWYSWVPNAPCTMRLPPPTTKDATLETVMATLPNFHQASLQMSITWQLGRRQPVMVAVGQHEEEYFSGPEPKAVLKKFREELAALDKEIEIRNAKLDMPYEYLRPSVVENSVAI

[5] = target: T2, Polyunsaturated fatty acid 5-lipoxygenase; assay: Inhibition of 5-LO in human PMNL using arachidonic acid as substrate assessed as product formation incubated for 15 mins prior to substrate addition measured after 10 mins by HPLC analysis
[6] = Solubility of the compound in PBS at pH 7.4 at RT; format: physicochemical
[7] = Solubility of the compound in DMSO at RT; format: physicochemical
[8] = Cytotoxicity against human U937 cells at 30 uM after 48 hrs by LDH assay; format: cell-based; settings: u-937, 48 h
[9] = Cytotoxicity against human U937 cells assessed as cell viability after 48 hrs by WST-1 assay; format: cell-based; settings: U-937, 48 h

inhibition [1]: inactive | IC50 [2]: 0.03 µM | IC50 [3]: > 10 µM | IC50 [4]: > 10 µM | IC50 [5]: 0.14 µM | solubility [6]: 0.08 mM (≈ 0.0265 mg/mL) | solubility [7]: 100 mM (≈ 33.2 mg/mL)
Structure (SMILES): COc1ccc(Cc2sc(-c3ccc(Cl)cc3)nc2O)cc1
Activity [8]: 4.09% | IC50 [9]: > 30 µM
